Where a name gives a salt, the structure may show the parent alone.
What was measured:
[1] = biological target: T1, MMP-13CD (catalytic domain of collagenase 3) (Homo sapiens, UniProt P45452); test: biochemical;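 also: inhibition of enzymatic thiopeptolide substrate cleavage (100 µM) in pH 6.0 MES buffer with CaCl2 and DTNB, comparing hydrolysis with versus without inhibitor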
[2] = biological target: T2, MMP-1FL (full-length interstitial collagenase) (Homo sapiens, UniProt P03956); test: Thiopeptolide hydrolysis assay, MMP-1; type: biochemical; conditions: Table 1b; read-out: MMP01 IC50
T2 sequence (P03956 100-469): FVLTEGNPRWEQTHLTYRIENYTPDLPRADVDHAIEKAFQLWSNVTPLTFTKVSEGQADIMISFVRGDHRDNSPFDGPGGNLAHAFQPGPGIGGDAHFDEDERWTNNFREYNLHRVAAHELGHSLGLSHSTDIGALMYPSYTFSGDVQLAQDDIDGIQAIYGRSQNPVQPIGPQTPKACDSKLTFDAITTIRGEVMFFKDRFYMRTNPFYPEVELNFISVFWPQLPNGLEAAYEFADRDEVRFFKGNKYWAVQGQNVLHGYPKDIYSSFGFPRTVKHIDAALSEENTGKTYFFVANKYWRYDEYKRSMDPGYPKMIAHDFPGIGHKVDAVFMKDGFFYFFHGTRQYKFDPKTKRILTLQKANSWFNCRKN

[3] = biological target: MMP-3CD (catalytic domain of stromelysin) (Homo sapiens, UniProt P08254); test: Thiopeptolide hydrolysis assay, MMP-3; type: biochemical; conditions: Table 1b; read-out: MMP03 IC50;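 also: inhibition of thiopeptolide substrate (100 µM) cleavage by the MMP-3 catalytic domain, detected with DTNB at pH 6.0 with CaCl2, hydrolysis compared against runs lacking inhibitor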
Experimental: They measure the amount by which a test compound reduces the hydrolysis of a thiopeptolide substrate caused by a matrix metalloproteinase enzyme.
Thiopeptolide substrates show virtually no decomposition or hydrolysis in the absence of a matrix metalloproteinase enzyme. A typical thiopeptolide substrate commonly utilized for assays is Ac-Pro-Leu-Gly-thioester-Leu-Leu-Gly-OEt. A 100 μL assay mixture will contain 50 mM of 2-morpholinoethane sulfonic acid monohydrate (MES, pH 6.0) 10 mM CaCl2, 100 μM thiopeptolide substrate, and 1 mM 5,5′-dithio-bis-(2-nitro-benzoic acid) (DTNB). […] Assays are carried out with and without matrix metalloproteinase inhibitor compounds, and the amount of hydrolysis is compared for a determination of inhibitory activity of the test compounds.

[4] = biological target: T1, MMP-13CD (catalytic domain of collagenase 3); test: Thiopeptolide hydrolysis assay, MMP-13; conditions: MMP13 IC50 (μM), Table 1b;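 also: inhibition of enzymatic thiopeptolide substrate cleavage (100 µM) in pH 6.0 MES buffer with CaCl2 and DTNB, comparing hydrolysis with versus without inhibitor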

Sequence of MMP-3CD (catalytic domain of stromelysin) (P08254 100-272 limits assumed): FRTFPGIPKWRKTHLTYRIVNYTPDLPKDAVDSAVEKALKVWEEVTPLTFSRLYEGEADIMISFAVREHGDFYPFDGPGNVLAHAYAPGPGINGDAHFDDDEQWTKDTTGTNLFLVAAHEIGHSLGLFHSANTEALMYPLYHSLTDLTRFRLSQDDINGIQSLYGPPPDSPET

| Compound | IC50 [1] [nM] | also measured |
| --- | --- | --- |
| Cn1c(=O)c2cc(C(=O)NCc3ccc4c(c3)OCO4)ccc2n(C)c1=O [1,3-Dimethyl-2,4-dioxo-1,2,3,4-tetrahydroquinazoline-6-carboxylic acid (benzo[1,3]dioxol-5-ylmethyl)amide] | 1700 | – |
| Cn1c(=O)n(CCc2ccccc2)c(=O)c2cc(C(=O)NCc3ccc4c(c3)OCO4)ccc21 [1-Methyl-2,4-dioxo-3-phenethyl-1,2,3,4-tetrahydroquinazoline-6-carboxylic acid (benzo[1,3]dioxol-5-ylmethyl)amide] | 700 | – |
| Cn1c(=O)n(Cc2ccccc2)c(=O)c2cc(C(=O)NCc3ccncc3)ccc21 [3-Benzyl-1-methyl-2,4-dioxo-1,2,3,4-tetrahydroquinazoline-6-carboxylic acid (4-pyridylmethyl)amide] | 51 | – |
| O=C(NCc1cccs1)c1ccc2[nH]c(=O)n(Cc3ccccc3)c(=O)c2c1 [3-Benzyl-2,4-dioxo-1,2,3,4-tetrahydroquinazoline-6-carboxylic acid (2-thienylmethyl)amide] | 1870 | – |
| COC(=O)c1ccc(CNC(=O)c2ccc3c(c2)c(=O)n(Cc2ccccc2)c(=O)n3C)cc1 [Methyl 4-({[1-(3-benzyl-1-methyl-2,4-dioxo-1,2,3,4-tetrahydroquin-azolin-6-yl)methanoyl]amino}methyl)benzoate] | 2250 | – |
| O=C(NCc1ccc2c(c1)OCO2)c1ccc2[nH]c(=O)n(Cc3ccccc3)c(=O)c2c1 [Synthesis Example 23, 3-Benzyl-2,4-dioxo-1,2,3,4-tetrahydroquinazoline-6-carboxylic acid (benzo[1,3]dioxol-5-ylmethyl)amide] | 21 | – |
| COc1cc(CNC(=O)c2ccc3c(c2)c(=O)n(Cc2ccccc2)c(=O)n3C)ccc1O [Synthesis Example 25, 3-Benzyl-1-methyl-2,4-dioxo-1,2,3,4-tetrahydroquinazoline-6-carboxylic acid 4-hydroxy-3-methoxybenzylamide] | 51 | – |
| COc1ccc(Cn2c(=O)[nH]c3ccc(C(=O)NCc4ccc5c(c4)OCO5)cc3c2=O)cc1 [Synthesis Example 27, 3-(4-Methoxybenzyl)-2,4-dioxo-1,2,3,4-tetrahydroquinazoline-6-carboxylic acid (benzo[1,3]dioxol-5-ylmethyl)amide] | 15 | – |
| COc1ccc(Cn2c(=O)c3cc(C(=O)NCc4ccc5c(c4)OCO5)ccc3n(C)c2=O)cc1 [Synthesis Example 28, 3-(4-Methoxybenzyl)-1-methyl-2,4-dioxo-1,2,3,4-tetrahydroquinazoline-6-carboxylic acid (benzo[1,3]dioxol-5-ylmethyl)amide] | 9 | – |
| O=C(NCc1ccc2c(c1)OCO2)c1ccc2[nH]c(=O)n(Cc3cccs3)c(=O)c2c1 [Synthesis Example 30, 2,4-Dioxo-3-(thien-2-ylmethyl)-1,2,3,4-tetrahydroquinazoline-6-carboxylic acid (benzo[1,3]dioxol-5-ylmethyl)amide] | 29 | – |
| Cn1c(=O)n(Cc2cccs2)c(=O)c2cc(C(=O)NCc3ccc4c(c3)OCO4)ccc21 [Synthesis Example 31, 1-Methyl-2,4-dioxo-3-(thien-2-ylmethyl)-1,2,3,4-tetrahydroquinazoline-6-carboxylic acid (benzo[1,3]dioxol-5-ylmethyl)amide] | 9 | – |
| COc1ccc(CNC(=O)c2cn3c(=O)n(Cc4ccc(C(=O)OCCN(C)C)cc4)c(=O)c(C)c3s2)cc1 [hydrochloride] | – | IC50 [2]: > 30000 nM; IC50 [3]: > 100000 nM; IC50 [4]: 0.0455 µM |
| Cc1c(=O)n(Cc2ccc(C#N)cc2)c(=O)n2cc(C(=O)NCc3ccncc3)sc12 [hydrochloride] | – | IC50 [2]: > 30000 nM; IC50 [3]: > 30000 nM; IC50 [4]: 0.0547 µM |
| Cc1c(=O)n(Cc2ccccc2)c(=O)n2cc(C(=O)NCc3ccncc3)sc12 [hydrochloride] | – | IC50 [2]: > 30000 nM; IC50 [3]: > 30000 nM; IC50 [4]: 0.0487 µM |
| O=C(NCc1ccccc1)c1cn2c(=O)n(Cc3ccncc3)c(=O)cc2s1 [hydrochloride] | – | IC50 [2]: > 100000 nM; IC50 [3]: > 100000 nM; IC50 [4]: 1.8 µM |
| O=C(NCc1ccncc1)c1cn2c(=O)n(Cc3ccccc3)c(=O)cc2s1 [hydrochloride] | – | IC50 [2]: > 100000 nM; IC50 [3]: 68000 nM; IC50 [4]: 0.49 µM |
| COc1ccc(CNC(=O)c2cn3c(=O)n(Cc4ccc(C(=O)O)cc4)c(=O)c(C)c3s2)cc1 [sodium salt] | – | IC50 [2]: > 100000 nM; IC50 [3]: 36000 nM; IC50 [4]: 0.00175 µM |

Now from value to compound, other results behind:

| IC50 [1] [nM] | Compound | also measured |
| --- | --- | --- |
| 96 | Cn1c(=O)n(Cc2cccs2)c(=O)c2cc(C(=O)NCc3ccccc3)ccc21 [1-Methyl-2,4-dioxo-3-thien-2-ylmethyl-1,2,3,4-tetrahydroquinazoline-6-carboxylic acid benzylamide] | – |
| 51 | O=C(NCc1ccc2c(c1)OCO2)c1ccc2[nH]c(=O)n(Cc3ccncc3)c(=O)c2c1 [2,4-Dioxo-3-pyrid-4-ylmethyl-1,2,3,4-tetrahydroquinazoline-6-carboxylic acid (benzo[1,3]dioxol-5-ylmethyl)amide] | – |
| 300 | O=C(NCc1ccccc1)c1ccc2[nH]c(=O)n(Cc3cccs3)c(=O)c2c1 [2,4-Dioxo-3-thien-2-ylmethyl-1,2,3,4-tetrahydroquinazoline-6-carboxylic acid benzylamide] | – |
| 157 | O=C(NCc1ccc2c(c1)OCO2)c1ccc2c(c1)c(=O)n(Cc1ccccc1)c(=O)n2CC1CC1 [3-Benzyl-1-cyclopropylmethyl-2,4-dioxo-1,2,3,4-tetrahydroquin-azoline-6-carboxylic acid (benzo[1,3]dioxol-5-ylmethyl)amide] | – |
| 600 | CC(C)Cn1c(=O)n(Cc2ccccc2)c(=O)c2cc(C(=O)NCc3ccc4c(c3)OCO4)ccc21 [3-Benzyl-1-isobutyl-2,4-dioxo-1,2,3,4-tetrahydroquinazoline-6-carboxylic acid (benzo[1,3]dioxol-5-ylmethyl)amide] | – |
| 57 | Cn1c(=O)n(Cc2ccccc2)c(=O)c2cc(C(=O)NCc3ccccc3)ccc21 [3-Benzyl-1-methyl-2,4-dioxo-1,2,3,4-tetrahydroquinazoline-6-carboxylic acid benzylamide] | – |
| 167 | O=C(NCc1ccc(Cl)cc1)c1ccc2[nH]c(=O)n(Cc3ccccc3)c(=O)c2c1 [3-Benzyl-2,4-dioxo-1,2,3,4-tetrahydroquinazoline-6-carboxylic acid 4-chlorobenzylamide] | – |
| 49 | COc1ccc(CNC(=O)c2ccc3[nH]c(=O)n(Cc4ccccc4)c(=O)c3c2)cc1 [3-Benzyl-2,4-dioxo-1,2,3,4-tetrahydroquinazoline-6-carboxylic acid 4-methoxybenzylamide] | – |
| 1320 | Cc1ccc(CNC(=O)c2ccc3[nH]c(=O)n(Cc4ccccc4)c(=O)c3c2)cc1 [3-Benzyl-2,4-dioxo-1,2,3,4-tetrahydroquinazoline-6-carboxylic acid 4-methylbenzylamide] | – |
| 366 | O=C(NCc1cccnc1)c1ccc2[nH]c(=O)n(Cc3ccccc3)c(=O)c2c1 [3-Benzyl-2,4-dioxo-1,2,3,4-tetrahydroquinazoline-6-carboxylic acid (3-pyridylmethyl)amide] | – |
| 183 | O=C(NCc1ccncc1)c1ccc2[nH]c(=O)n(Cc3ccccc3)c(=O)c2c1 [3-Benzyl-2,4-dioxo-1,2,3,4-tetrahydroquinazoline-6-carboxylic acid (4-pyridylmethyl)amide] | – |
| 62 | O=C(OCc1ccncc1)c1cnc2[nH]c(=O)n(Cc3ccccc3)c(=O)c2c1 [4-Pyridylmethyl 3-benzyl-2,4-dioxo-1,2,3,4-tetrahydropyrido[2,3-d]-pyrimidine-6-carboxylate] | – |
| 1210 | O=C(OCc1ccccc1)c1ccc2c(c1)c(=O)n(Cc1ccncc1)c(=O)n2Cc1ccccc1 [Benzyl 1-benzyl-2,4-dioxo-3-pyrid-4-ylmethyl-1,2,3,4-tetrahydroquin-azoline-6-carboxylate] | – |
| 96 | O=C(OCc1ccccc1)c1cnc2[nH]c(=O)n(Cc3ccccc3)c(=O)c2c1 [Benzyl 3-benzyl-2,4-dioxo-1,2,3,4-tetrahydropyrido[2,3-d]pyrimidine-6-carboxylate] | – |
| 193 | O=C(NCc1ccccc1)c1ccc2[nH]c(=O)n(Cc3ccccc3)c(=O)c2c1 [Synthesis Example 22, 3-Benzyl-2,4-dioxo-1,2,3,4-tetrahydroquinazoline-6-carboxylic acid benzylamide] | – |
| 5 | Cn1c(=O)n(Cc2ccccc2)c(=O)c2cc(C(=O)NCc3ccc4c(c3)OCO4)ccc21 [Synthesis Example 24] | – |
| 12 | COc1ccc(CNC(=O)c2ccc3c(c2)c(=O)n(Cc2ccccc2)c(=O)n3C)cc1 [Synthesis Example 26, 3-Benzyl-1-methyl-2,4-dioxo-1,2,3,4-tetrahydroquinazoline-6-carboxylic acid 4-methoxybenzylamide] | – |
| 10 | COc1ccc(CNC(=O)c2ccc3c(c2)c(=O)n(Cc2ccc(OC)cc2)c(=O)n3C)cc1 [Synthesis Example 29, 3-(4-Methoxybenzyl)-1-methyl-2,4-dioxo-1,2,3,4-tetrahydroquinazoline-6-carboxylic acid 4-methoxybenzylamide] | – |
| 28 | O=C(NCc1ccc2c(c1)OCO2)c1ccc2[nH]c(=O)n(Cc3ccc(Cl)cc3)c(=O)c2c1 [Synthesis Example 32, 3-(4-Chlorobenzyl)-2,4-dioxo-1,2,3,4-tetrahydroquinazoline-6-carboxylic acid (benzo[1,3]dioxol-5-ylmethyl)amide] | – |

From patent publication US20050004126A1 (priority 2001, published 2005)
